Values quoted from earlier work in US20100221334A1, “COMPOSITIONS INCLUDING LEUKOTRIENE ANTAGONISTS AND NSAIDS AND METHODS OF USING THE SAME” (priority 2007, published 2010).

Details: general statement on long-acting NSAIDs; species not given

CCc1cccc2c3c([nH]c12)C(CC)(CC(=O)O)OCC3 (stereo not shown) [etodolac]
pharmacokinetic half-life: about 7 hours

CC(C(=O)O)c1ccc(-c2ccccc2)c(F)c1 (stereo not shown) [flurbiprofen]
pharmacokinetic half-life: about 6 hours

O=C(c1ccccc1)c1ccc2n1CCC2C(=O)O (stereo not shown) [ketorolac]
pharmacokinetic half-life: 8 to 9 h

Cc1cccc(Nc2ccccc2C(=O)O)c1C [mefenamic acid]
pharmacokinetic half-life: up to 4 hours
